Reference: patent US11878975B2, “Substituted indole compounds useful as TLR inhibitors” (BRISTOL-MYERS SQUIBB COMPANY, priority 2017, dated 2024)

Key:
Assay type in all cases: cell-based
[1] = molecular target: T1, human TLR9 (Homo sapiens, UniProt Q9NR96); assay: TLR9 inhibition reporter assay (HEK-Blue cells, SEAP reporter, ODN2006 stimulation); conditions: HEK-Blue cells overexpressing human TLR9, SEAP reporter, ODN2006 5 nM
T1 construct: host or cells: HEK-Blue cells
T1 sequence (Q9NR96 26-1032): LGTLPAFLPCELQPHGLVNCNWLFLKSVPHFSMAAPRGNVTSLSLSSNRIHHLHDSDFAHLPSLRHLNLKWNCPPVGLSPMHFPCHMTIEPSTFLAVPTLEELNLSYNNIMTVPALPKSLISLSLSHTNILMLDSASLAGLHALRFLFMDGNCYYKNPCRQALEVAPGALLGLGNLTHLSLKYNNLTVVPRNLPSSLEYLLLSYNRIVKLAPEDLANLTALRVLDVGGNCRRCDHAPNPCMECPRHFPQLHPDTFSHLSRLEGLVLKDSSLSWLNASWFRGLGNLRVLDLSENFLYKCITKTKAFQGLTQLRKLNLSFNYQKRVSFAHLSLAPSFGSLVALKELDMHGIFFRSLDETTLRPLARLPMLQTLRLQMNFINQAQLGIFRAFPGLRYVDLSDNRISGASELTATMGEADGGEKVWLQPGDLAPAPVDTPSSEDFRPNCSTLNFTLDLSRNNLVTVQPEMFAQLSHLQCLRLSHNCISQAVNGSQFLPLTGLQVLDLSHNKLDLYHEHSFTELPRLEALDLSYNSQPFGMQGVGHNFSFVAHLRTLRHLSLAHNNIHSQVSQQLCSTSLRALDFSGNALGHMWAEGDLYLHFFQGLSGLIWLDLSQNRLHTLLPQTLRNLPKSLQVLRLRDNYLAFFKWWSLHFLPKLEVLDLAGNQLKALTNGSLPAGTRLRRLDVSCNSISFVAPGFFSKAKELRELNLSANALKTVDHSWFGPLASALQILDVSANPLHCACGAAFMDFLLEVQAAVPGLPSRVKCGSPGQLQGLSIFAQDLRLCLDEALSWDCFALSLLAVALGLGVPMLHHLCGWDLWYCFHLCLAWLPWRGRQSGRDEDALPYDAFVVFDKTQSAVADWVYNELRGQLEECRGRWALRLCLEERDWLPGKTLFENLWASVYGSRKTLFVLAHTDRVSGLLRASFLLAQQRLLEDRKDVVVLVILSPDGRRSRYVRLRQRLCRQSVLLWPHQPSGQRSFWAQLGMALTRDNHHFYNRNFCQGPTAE
Procedure, shortened: (§1)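 Percent inhibition is derived from SEAP signal, scaled between agonist-plus-DMSO wells and wells given a known inhibitor. Test compounds (0.05 nM–50 μM) are pre-incubated 30 min at room temperature before agonist addition (TLR7: 7.5 μM gardiquimod; TLR8: 15.9 μM R848; TLR9: 5 nM ODN2006) and 22 h culture at 37 °C.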

[2] = molecular target: T2, human TLR7 (Homo sapiens, UniProt Q9NYK1); assay: TLR7 inhibition reporter assay (HEK-Blue cells, SEAP reporter, gardiquimod stimulation); conditions: HEK-Blue cells overexpressing human TLR7, SEAP reporter, gardiquimod 7.5 μM
T2 construct: host or cells: HEK-Blue cells
T2 sequence (Q9NYK1 27-1049): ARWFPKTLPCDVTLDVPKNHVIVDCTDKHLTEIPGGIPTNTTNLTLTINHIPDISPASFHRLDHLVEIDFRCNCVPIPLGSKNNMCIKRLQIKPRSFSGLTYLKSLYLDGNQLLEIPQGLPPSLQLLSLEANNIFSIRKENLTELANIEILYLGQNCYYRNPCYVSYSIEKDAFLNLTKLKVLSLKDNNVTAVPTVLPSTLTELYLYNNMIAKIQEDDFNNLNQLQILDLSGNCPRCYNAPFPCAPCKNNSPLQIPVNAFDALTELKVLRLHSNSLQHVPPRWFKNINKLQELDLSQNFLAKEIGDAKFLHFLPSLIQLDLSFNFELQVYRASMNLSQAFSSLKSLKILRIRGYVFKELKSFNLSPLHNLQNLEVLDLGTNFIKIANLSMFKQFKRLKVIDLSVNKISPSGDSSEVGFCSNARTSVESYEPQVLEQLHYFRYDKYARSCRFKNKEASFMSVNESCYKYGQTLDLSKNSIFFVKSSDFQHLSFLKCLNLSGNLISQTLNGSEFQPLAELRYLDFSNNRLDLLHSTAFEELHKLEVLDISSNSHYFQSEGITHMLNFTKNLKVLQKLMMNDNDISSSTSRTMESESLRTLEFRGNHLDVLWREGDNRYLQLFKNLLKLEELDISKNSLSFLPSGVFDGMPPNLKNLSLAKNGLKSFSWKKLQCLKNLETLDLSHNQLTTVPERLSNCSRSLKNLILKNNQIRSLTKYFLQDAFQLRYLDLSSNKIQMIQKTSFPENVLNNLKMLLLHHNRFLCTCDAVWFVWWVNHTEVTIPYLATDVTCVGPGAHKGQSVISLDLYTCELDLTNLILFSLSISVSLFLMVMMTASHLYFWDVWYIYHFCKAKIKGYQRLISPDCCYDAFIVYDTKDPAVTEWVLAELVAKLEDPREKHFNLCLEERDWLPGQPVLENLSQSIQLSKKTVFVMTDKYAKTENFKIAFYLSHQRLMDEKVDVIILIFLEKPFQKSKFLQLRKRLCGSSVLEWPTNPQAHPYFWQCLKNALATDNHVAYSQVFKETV
Procedure, shortened: as §1

[3] = molecular target: T3, human TLR8 (Homo sapiens, UniProt Q9NR97); assay: TLR8 inhibition reporter assay (HEK-Blue cells, SEAP reporter, R848 stimulation); conditions: HEK-Blue cells overexpressing human TLR8, SEAP reporter, R848 15.9 μM
T3 construct: host or cells: HEK-Blue cells
T3 sequence (Q9NR97 27-1041): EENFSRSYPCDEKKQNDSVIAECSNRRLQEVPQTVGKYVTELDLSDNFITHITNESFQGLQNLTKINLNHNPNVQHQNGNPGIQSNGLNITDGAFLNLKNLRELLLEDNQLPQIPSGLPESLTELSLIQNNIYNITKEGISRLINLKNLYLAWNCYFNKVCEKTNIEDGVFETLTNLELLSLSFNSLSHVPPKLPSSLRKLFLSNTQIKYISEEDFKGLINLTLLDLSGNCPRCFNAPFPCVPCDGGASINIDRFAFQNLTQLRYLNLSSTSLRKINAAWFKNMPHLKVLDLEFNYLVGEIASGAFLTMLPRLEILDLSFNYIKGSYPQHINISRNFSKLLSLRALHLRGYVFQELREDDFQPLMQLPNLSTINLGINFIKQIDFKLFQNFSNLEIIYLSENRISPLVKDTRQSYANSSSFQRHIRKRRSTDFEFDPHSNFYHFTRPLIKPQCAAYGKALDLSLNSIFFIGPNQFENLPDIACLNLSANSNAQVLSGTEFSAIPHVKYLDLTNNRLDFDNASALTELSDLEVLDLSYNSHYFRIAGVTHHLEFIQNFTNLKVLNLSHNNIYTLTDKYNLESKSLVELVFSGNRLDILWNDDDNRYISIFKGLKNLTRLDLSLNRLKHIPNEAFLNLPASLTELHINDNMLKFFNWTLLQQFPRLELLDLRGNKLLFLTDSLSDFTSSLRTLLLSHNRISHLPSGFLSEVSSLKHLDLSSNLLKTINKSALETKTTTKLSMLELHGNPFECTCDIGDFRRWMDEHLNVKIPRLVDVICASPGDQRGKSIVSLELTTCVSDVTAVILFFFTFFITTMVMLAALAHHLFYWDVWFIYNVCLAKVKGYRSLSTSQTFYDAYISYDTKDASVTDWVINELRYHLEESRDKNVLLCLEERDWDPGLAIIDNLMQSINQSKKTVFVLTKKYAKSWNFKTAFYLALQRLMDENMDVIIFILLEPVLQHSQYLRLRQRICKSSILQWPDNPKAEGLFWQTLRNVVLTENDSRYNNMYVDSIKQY
Procedure, shortened: as §1

Row | Structure (SMILES) | IC50 [1] [µM] | IC50 [2] [nM] | IC50 [3] [nM]
1 | COc1cc(-c2[nH]c3ccc(C4CCC(N(C)OC)CC4)cc3c2C(C)C)cn2ncnc12 (stereo not drawn) [Example 100] | 14.6 | 32 | 431
2 | COc1cc(-c2[nH]c3ccc(C4CCCN(C5COC5)C4)cc3c2C(C)C)cn2ncnc12 (stereo not drawn) [Example 243] | 12.9 | 10 | 16
3 | COc1cc(-c2[nH]c3ccc(C4CC(NCCS(C)(=O)=O)C4)cc3c2C(C)C)cn2ncnc12 (stereo not drawn) [Example 571] | 2.32 | 0.53 | 0.33
4 | COCCN1CC(c2ccc3[nH]c(-c4cc(C)c5ncnn5c4)c(C(C)C)c3c2)OCC1(C)C (stereo not drawn) [Example 382] | 7.17 | 15 | 3.4
5 | COc1cc(-c2[nH]c3ccc(C4CCC(N5C[C@@H](C)O[C@@H](C)C5)CC4)cc3c2C(C)C)cn2ncnc12 (stereo partly drawn) [Example 40] | 2.51 | 0.75 | 1.2
6 | CNC(=O)CNC1CCC(c2ccc3[nH]c(-c4cc(C)nc(C)c4)c(C(C)C)c3c2)CC1 (single isomer, unassigned) [Example 180, 2-((4-(2-(2,6-dimethylpyridin-4-yl)-3-isopropyl-1H-indol-5-yl)cyclohexyl)amino)-N-methylacetamide] | 0.277 | 2 | 4.5
7 | Cc1c(-c2[nH]c3ccc(C4CCC(N(C)C5COC5)CC4)cc3c2C(C)C)cn2cnnc2c1C (stereo not drawn) [Example 526] | 6.97 | 6 | 34
8 | Cc1c(-c2[nH]c3ccc(C4CN(C)C4)cc3c2C(C)C)cn2ncnc2c1C [Example 547] | 4.55 | 0.37 | 0.67
9 | COc1cc(-c2[nH]c3ccc(C4CNC(C)(C)CO4)cc3c2C(C)C)cn2ncnc12 (stereo not drawn) [Example 368] | 2.48 | 0.45 | 1.6
10 | Cc1c(-c2[nH]c3ccc(C4CN(C5CCOC5)C4)cc3c2C(C)C)cn2cnnc2c1C (stereo not drawn) [Example 538] | 16.5 | 33 | 45
11 | Cc1cc(-c2[nH]c3ccc(C4CN(CC(C)(C)O)CCO4)cc3c2C(C)C)cn2ncnc12 (stereo not drawn) [Example 355, 1-(2-(3-isopropyl-2-(8-methyl-[1,2,4]triazolo[1,5-a]pyridin-6-yl)-1H-indol-5-yl)morpholino)-2-methylpropan-2-ol] | 28.9 | 5 | 1.4
12 | COc1cc(-c2[nH]c3ccc(CC4CN(CC#N)C4)cc3c2C(C)C)cn2ncnc12 [Example 432] | 5.35 | 8 | 49
13 | Cc1cc(-c2[nH]c3ccc([C@@H]4C[C@H]4CN4CCCC4)cc3c2C(C)C)ccn1 [Example 464] | 0.271 | 28 | 3.4
14 | Cc1cc(-c2[nH]c3ccc(C4CCC(NC5COC5)CC4)cc3c2C(C)C)cc(C)n1 (stereo not drawn) [Example 60] | 0.501 | 0.26 | 1.8
15 | Cc1c(-c2[nH]c3ccc(CC4CCCN4C4CCOCC4)cc3c2C(C)C)cn2cnnc2c1C (stereo not drawn) [Example 429] | 6.78 | 11 | 17
16 | COc1cc(-c2[nH]c3ccc(C4CCC(N5CCC[C@H]5C(N)=O)CC4)cc3c2C(C)C)cn2ncnc12 (stereo partly drawn) [Example 31] | 2.11 | 1 | 6.1
17 | Cc1cc(-c2[nH]c3ccc(C4CCC(N5CCN(C)CC5)CC4)cc3c2C(C)C)cc(C)n1 (single isomer, unassigned) [Example 37] | 0.583 | 29 | 56
18 | Cc1cc(-c2[nH]c3ccc(C4CN(C(=O)CN(C)C)CCO4)cc3c2C(C)C)cn2ncnc12 (stereo not drawn) [Example 331] | 3.62 | 1 | 4.6
19 | COCCN(C)C1CCC(c2ccc3[nH]c(-c4cc(OC)c5ncnn5c4)c(C(C)C)c3c2)CC1 (single isomer, unassigned) [Example 79] | 2.58 | 2 | 5.7
20 | Cc1c(-c2[nH]c3ccc(C4CN(C(=O)CN(C)C)CCO4)cc3c2C(C)C)cn2ncnc2c1C (stereo not drawn) [Example 329] | 4.14 | 1 | 3.4
21 | COc1cc(-c2[nH]c3ccc(C4CCC(NC5(C)CC5)CC4)cc3c2C(C)C)cn2ncnc12 (stereo not drawn) [Example 43] | 4.37 | 1 | 13
22 | COc1cc(-c2[nH]c3ccc(C4CCCN(C5COC5)C4)cc3c2C(C)C)cn2ncnc12 (stereo not drawn) [Example 242] | 25.4 | 8 | 2.4
23 | Cc1c(-c2[nH]c3ccc(C4CCC(NCC(=O)N(C)C)CC4)cc3c2C(C)C)cn2cnnc2c1C (stereo not drawn) [Example 518] | 1.31 | 2 | 16
24 | Cc1c(-c2[nH]c3ccc(C4CN(CC(=O)N(C)C)C(C)(C)CO4)cc3c2C(C)C)cn2ncnc2c1C (stereo not drawn) [Example 386] | > 50 | 34 | 49
25 | COc1cc(-c2[nH]c3ccc(C4CCC(N5CCNC(=O)C5)CC4)cc3c2C(C)C)cn2ncnc12 (stereo not drawn) [Example 78] | 16.8 | 3 | 32
